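All cell lines were grown in 96-well plates and treated with compound for 48 hours. GI50 marks 50% less growth. TGI: total growth inhibition.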

Test systems include U251 CNS; HCC-2998 colon; SF-295 CNS; SNB-19 CNS; OVCAR-3 ovarian; SK-OV-3 ovarian; NCI-H226 lung; SR leukemia; HOP-92 NSCLC; HCT-15 colon.
Common to all, as to test: NCI anticancer screen, dose series, 48 h

As to `Cc1[nH]c(N=Nc2ccccc2)nc1N=Nc1ccccc1`, the GI50 with U251 CNS is 2.83 µM; in the experiment on HCC-2998 colon, 4.2 µM; in the experiment with SF-295 CNS, 1.93 µM; in the experiment with SNB-19 CNS it was 3.63 µM; in the experiment with OVCAR-3 ovarian, 2.6 µM; in the experiment with SK-OV-3 ovarian, 3.14 µM. Moreover, the GI50 with NCI-H226 lung is 2.7 µM; with SR leukemia, 0.418 µM; in the experiment on HOP-92 NSCLC it was 2.34 µM; with HCT-15 colon, 1.4 µM. In addition, the TGI in the experiment with U251 CNS is more than 37.5 µM; in the experiment on HCC-2998 colon, 29.6 µM; with SF-295 CNS it was 11.6 µM; in the experiment on SNB-19 CNS, more than 87.7 µM; with OVCAR-3 ovarian, 16.1 µM; in the experiment with SK-OV-3 ovarian, more than 32.4 µM. In addition, the values for the TGI in the experiment with NCI-H226 lung, in the experiment on HOP-92 NSCLC and in the experiment on HCT-15 colon were 12.4 µM, 20.3 µM and 22.1 µM, respectively.
For `CCCCCCCCCCCCCCCCOP(=O)(O)Oc1ccc(/C=C\c2ccc(OP(=O)(O)OCCCCCCCCCCCCCCCC)cc2)cc1`, the TGI in the experiment on U251 CNS, with HCC-2998 colon, in the experiment on SF-295 CNS, in the experiment with SNB-19 CNS, in the experiment on OVCAR-3 ovarian and in the experiment with SK-OV-3 ovarian was more than 100 µM in each case. Moreover, the TGI is more than 100 µM in the experiment with NCI-H226 lung, 47.1 µM in the experiment with SR leukemia, 67.1 µM in the experiment on HOP-92 NSCLC and more than 100 µM with HCT-15 colon.
Take `Cc1cc(C)cc(Nc2cc(C)nc3nc(C(F)(F)F)nn23)c1`: the GI50 in the experiment with U251 CNS is more than 100 µM; in the experiment with HCC-2998 colon, more than 100 µM; with SF-295 CNS it was 32.3 µM; in the experiment with SNB-19 CNS, more than 100 µM; in the experiment on OVCAR-3 ovarian, more than 100 µM; with SK-OV-3 ovarian it was 81.5 µM. Also, the GI50 with NCI-H226 lung was more than 100 µM; in the experiment on SR leukemia it was more than 100 µM; with HOP-92 NSCLC, 26.2 µM; with HCT-15 colon it was more than 100 µM. The TGI in the experiment on U251 CNS, with HCC-2998 colon, with SF-295 CNS, in the experiment on SNB-19 CNS, in the experiment on OVCAR-3 ovarian and with SK-OV-3 ovarian was more than 100 µM throughout. Besides, the TGI in the experiment on NCI-H226 lung was more than 100 µM; in the experiment on SR leukemia, more than 100 µM; in the experiment on HOP-92 NSCLC it was 97.9 µM; in the experiment on HCT-15 colon it was more than 100 µM.
Take `COC(=O)C(=O)C(C(=O)C=C(C)C)C(=O)C(=O)Nc1ccc(Cl)cc1C` (centres undefined): the TGI in the experiment on U251 CNS, with HCC-2998 colon, in the experiment on SF-295 CNS, in the experiment with SNB-19 CNS, in the experiment with OVCAR-3 ovarian and in the experiment on SK-OV-3 ovarian was more than 100 µM in each case. Further, the TGI is more than 100 µM in the experiment on NCI-H226 lung, 45.2 µM in the experiment with SR leukemia, more than 100 µM in the experiment with HOP-92 NSCLC and more than 100 µM with HCT-15 colon.
On to `COc1cc2c3c(n(CCCBr)c(=O)c2cc1OC)-c1ccc(NC(C)=O)cc1C3=O`, for which the GI50 is 1.17 µM in the experiment with U251 CNS; 11.9 µM in the experiment with HCC-2998 colon; 0.828 µM with SF-295 CNS; 3.19 µM with SNB-19 CNS; 4.37 µM in the experiment on OVCAR-3 ovarian; 2.28 µM with SK-OV-3 ovarian. Moreover, the GI50 with NCI-H226 lung was 5.17 µM; in the experiment on SR leukemia it was 0.574 µM; in the experiment with HOP-92 NSCLC, 73.4 µM; in the experiment on HCT-15 colon, 30.8 µM. Also, the TGI in the experiment on U251 CNS was 44.1 µM; in the experiment on HCC-2998 colon, 43.9 µM; in the experiment on SF-295 CNS, 11.5 µM; in the experiment on SNB-19 CNS, more than 100 µM; with OVCAR-3 ovarian, 24.9 µM; in the experiment on SK-OV-3 ovarian, 10.6 µM. Besides, the TGI with NCI-H226 lung is 57.3 µM; in the experiment on SR leukemia it was 12.6 µM; with HOP-92 NSCLC, more than 100 µM; with HCT-15 colon it was more than 100 µM.
As to `CCC(C)(O)c1cn(-c2cccc(S(=O)(=O)O)c2)nn1` (centres undefined), the TGI in the experiment on U251 CNS, in the experiment with HCC-2998 colon, with SF-295 CNS, in the experiment on SNB-19 CNS, in the experiment with OVCAR-3 ovarian and with SK-OV-3 ovarian was more than 100 µM throughout. The TGI with NCI-H226 lung, with SR leukemia, in the experiment on HOP-92 NSCLC and with HCT-15 colon was more than 100 µM throughout.
As for `CN1C(NC(=O)c2ccc(Cl)nc2)=NS(=O)(=O)c2cc(Cl)ccc21`, the GI50 in the experiment with U251 CNS, in the experiment on HCC-2998 colon, with SF-295 CNS, with SNB-19 CNS, in the experiment on OVCAR-3 ovarian and in the experiment on SK-OV-3 ovarian was more than 100 µM in each case. For the same compound, the GI50 with NCI-H226 lung, in the experiment with SR leukemia, in the experiment on HOP-92 NSCLC and with HCT-15 colon was more than 100 µM throughout. For the same compound, the TGI in the experiment on U251 CNS, with HCC-2998 colon, in the experiment on SF-295 CNS, in the experiment with SNB-19 CNS, with OVCAR-3 ovarian and in the experiment with SK-OV-3 ovarian was more than 100 µM throughout. Besides, the TGI in the experiment on NCI-H226 lung, in the experiment with SR leukemia, in the experiment with HOP-92 NSCLC and in the experiment on HCT-15 colon was more than 100 µM each time.
As to `COc1ccc(OC(=O)O[C@H]2[C@H](O[C@H]3[C@@H](O)COC(O[C@H]4C[C@H]5[C@@H]6CC=C7C[C@@H](O)CC[C@]7(C)[C@H]6CC[C@]5(C)[C@H]4[C@H](C)C(=O)CCC(C)C)[C@@H]3OC(C)=O)OC[C@@H](O)[C@@H]2O)cc1` (some centres undefined), the GI50 in the experiment with U251 CNS is 0.0121 µM; in the experiment with HCC-2998 colon, 4.91 µM; in the experiment on SF-295 CNS it was less than 0.01 µM; in the experiment on SNB-19 CNS it was 0.0857 µM; with OVCAR-3 ovarian it was 10.7 µM; with SK-OV-3 ovarian, 0.329 µM. Further, the GI50 is 0.58 µM in the experiment with NCI-H226 lung, 0.0102 µM in the experiment on SR leukemia, 0.013 µM in the experiment on HOP-92 NSCLC and 1.29 µM in the experiment on HCT-15 colon. The TGI in the experiment with U251 CNS came out at 16.2 µM; in the experiment on HCC-2998 colon, 21.4 µM; in the experiment on SF-295 CNS, 0.0193 µM; with SNB-19 CNS, 6.56 µM; in the experiment with OVCAR-3 ovarian, 24.5 µM; with SK-OV-3 ovarian it was 15.3 µM. Also, the TGI was determined as 18.7 µM in the experiment with NCI-H226 lung, 21.4 µM in the experiment with SR leukemia, 2.72 µM in the experiment with HOP-92 NSCLC and 11.4 µM in the experiment with HCT-15 colon.

The values above are taken from PubChem BioAssay (NCI).
